Changes are numbered by the printed parent chain.
How the values were obtained:
[1] = system: human airway epithelial cultures; conditions: background description; cited from earlier work
[2] = target: T1, GFP-hHv1 G199C mutant (Homo sapiens, UniProt Q96D96, G199C); assay: Patch-clamp currents of GFP-hHv1 G199C mutant in transfected HEK cells; format: cell-based; conditions: G199C mutant (engineered Cys at residue 199); FIG. 3
T1 construct: expressed in transfected cells; host or cells: HEK-293 cell clone HM1 (stably expresses the human muscarinic M1 receptor)
T1 sequence (Q96D96 1-273 G199C): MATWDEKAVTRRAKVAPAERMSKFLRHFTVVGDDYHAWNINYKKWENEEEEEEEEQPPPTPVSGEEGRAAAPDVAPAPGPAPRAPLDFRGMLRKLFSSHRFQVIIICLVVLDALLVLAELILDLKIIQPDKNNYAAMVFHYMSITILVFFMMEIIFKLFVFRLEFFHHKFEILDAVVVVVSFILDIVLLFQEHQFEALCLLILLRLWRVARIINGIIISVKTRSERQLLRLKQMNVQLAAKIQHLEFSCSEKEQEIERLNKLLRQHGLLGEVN

[3] = target: T2, wt GFP-hHv1 (Homo sapiens, UniProt Q96D96); assay: Patch-clamp currents of wt GFP-hHv1 in transfected HEK cells; format: cell-based; conditions: wild-type channel
T2 construct: expressed in transfected cells; host or cells: HEK-293 cell clone HM1 (stably expresses the human muscarinic M1 receptor)
T2 sequence (Q96D96 1-273): T1 sequence (Q96D96 1-273 G199C) with C199G

[4] = system: T lymphocytes; conditions: one day after stimulation; cited from earlier work

Compound	effect on acid secretion across the epithelium [1]	other results
CO/C1=C\C(C)=C\[C@@H](C)[C@@H](O)[C@@H](C)C/C(C)=C/C=C/[C@H](OC)[C@@H]([C@@H](C)[C@@H](O)[C@H](C)[C@@]2(O)C[C@@H](O)[C@H](C)[C@@H](C(C)C)O2)OC1=O [bafilomycin A1]	not	–
C[N+](C)(C)CCSS(C)(=O)=O [MTSET, 2-(trimethylammonium)methanethiosulfonate]	–	effect on hHv1 currents [2]: modulate hHv1 currents; effect on wt GFP-hHv1 currents [3]: little effect
Cc1nc2c(OCc3ccccc3)cccn2c1CC#N [Sch-28080]	not	–
N=C(N)NC(=O)c1nc(Cl)c(N)nc1N [amiloride]	not	–
[Cl-].[Cl-].[Zn+2] [ZnCl2]	inhibited	–
CCCCCCCCCCCCCC(=O)O[C@@H]1[C@@H](C)[C@@]2(O)[C@@H](C=C(CO)C[C@]3(O)C(=O)C(C)=C[C@@H]23)[C@@H]2C(C)(C)[C@]12OC(C)=O [PMA, phorbol 12-myristate 13-acetate]	–	increase of H+ currents in T lymphocytes [4]: 13 fold
Nc1ncnc2c1ncn2[C@@H]1O[C@H](COP(=O)(O)OP(=O)(O)OP(=O)(O)O)[C@@H](O)[C@H]1O [ATP]	stimulated	–
NCCc1c[nH]cn1 [histamine]	stimulated	–
C[C@@H]1O[C@@H](O[C@H]2C[C@@H](O)[C@]3(CO)[C@H]4[C@H](O)C[C@]5(C)[C@@H](C6=CC(=O)OC6)CC[C@]5(O)[C@@H]4CC[C@]3(O)C2)[C@H](O)[C@H](O)[C@H]1O [ouabain]	not	–

Reference: patent US9068018B2, “Methods of using voltage-gated Hv1 proton channels to detect changes in intracellular pH” (Children's Medical Center Corporation, priority 2006, dated 2015)
